According to patent publication US4963552A, “1-substitute-1,2-dihydro-4-((substituted)phenyl)imidazo-[1,5-a] pyrimidine-8-carbonitriles” (American Cyanamid Company, priority 1989, dated 1990):
Structures can show the parent of a compound that is named as a salt.

Columns and labels:
[1] = test system: spontaneously hypertensive rats of the Okamoto strain; assay: Reduction of mean arterial blood pressure in spontaneously hypertensive rats; type: in vivo, rat; conditions: second identical dose at 24 h, measured at 28 h, male SHR, average MABP 160±1.5 mm of mercury
Protocol: These compounds were tested for hypotensive activity by the method of P. S. Chan and D. W. Poorvin, Clinical and Experimental Hypertension, 1 (6), 817-830 (1979). Male, 16 week old, spontaneously hypertensive rats of the Okamoto strain having an average mean arterial blood pressure of 160±1.5 mm of mercury are used in the test. One to three rats are used per test compound. The test compound is suspended in 2% pre-boiled starch at a concentration of 50 mg/ml, and a rat is dosed by gavage at a dose of 100 mg/kg of body weight or less, with 0.9% sodium chloride loading at a dose of 25 ml/kg of body weight. A second identical dose of the test compound, without sodium chloride loading, is given 24 hours later. At 28 hours after the initial dose the mean arterial blood pressure is measured by the method of Chan and Poorvin vide supra. The procedure is repeated in a second and third rat when necessary.

[2] = target: T1, [^3 H]-imipramine receptor (human platelet membranes) (Homo sapiens, UniProt P31645); assay: Inhibition of [^3 H]-imipramine binding to human platelet membranes; conditions: 10 μm test compound, 90 minutes at 0° C., duplicate, more than 50% considered active; for inhibition at 10 µM: 1.5 h
T1 construct: Platelet membranes were obtained using the procedure described by Wennogle, L. P., et al; tissue New York Blood Center; host or cells: human platelets (washed, sonicated membranes)
T1 sequence (P31645 whole entry): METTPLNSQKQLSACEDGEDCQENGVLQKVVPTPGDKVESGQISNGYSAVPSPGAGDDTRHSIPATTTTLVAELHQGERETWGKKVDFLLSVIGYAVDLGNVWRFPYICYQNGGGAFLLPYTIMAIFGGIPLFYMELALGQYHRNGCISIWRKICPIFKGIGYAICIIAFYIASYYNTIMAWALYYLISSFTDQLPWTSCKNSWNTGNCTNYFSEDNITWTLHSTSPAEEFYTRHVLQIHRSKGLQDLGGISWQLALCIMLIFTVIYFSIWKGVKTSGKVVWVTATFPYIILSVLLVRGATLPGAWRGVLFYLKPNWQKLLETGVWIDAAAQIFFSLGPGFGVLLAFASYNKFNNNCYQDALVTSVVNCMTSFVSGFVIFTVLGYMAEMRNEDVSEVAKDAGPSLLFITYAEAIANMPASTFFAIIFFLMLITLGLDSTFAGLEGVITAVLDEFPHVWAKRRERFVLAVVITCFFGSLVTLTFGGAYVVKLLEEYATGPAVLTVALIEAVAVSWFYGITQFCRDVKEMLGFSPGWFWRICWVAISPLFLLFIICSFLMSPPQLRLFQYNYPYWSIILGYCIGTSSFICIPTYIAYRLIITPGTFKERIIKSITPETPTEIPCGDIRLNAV
Protocol: The activity of the compounds of this invention as antidepressant agents was verified in the following test which measures the ability of a test compound to inhibit [^3 H]-imipramine binding to human platelet membranes.
Platelet membranes were obtained using the procedure described by Wennogle, L. P., et al., Pharmac. Biochem Behav., 15, 975 (1981). Fresh human platelet concentrates(less than 48 hours old) were obtained from the New York Blood Center. These concentrates were prepared in a citrate-dextrose anticoagulant using standard techniques. Platelets were washed twice by centrifugation (2500 x G, 10 minutes) in 50 volumes of an antiprotease buffer containing 0.005M potassium chloride, 0.12M sodium chloride, 0.05M Tris pH 7.5, 0.025 Units/ml aprotinin, 0.5 μg/m pepstatin, […] bacitracin, 3 mM ethylenediaminetetraacetic acid and 1.0 mM ethylene glycol-bis(β-aminoethyl ether)-N,N'-tetraacetic acid. […] All procedures were conducted at 0° C. using plastic laboratory ware throughout the platelet membrane preparation. Platelets were resuspended in 20 volumes of buffer and sonicated 3 times using 10 second bursts of a Branson sonifier (cell disrupter 350) at setting 6 (standard 3/4 inch horn), keeping the sample on ice throughout the procedure. Platelet membranes were then washed twice at 18,000 x G for 20 minutes with 50 volumes of the antiprotease buffer and resuspended to 3.0 mg protein/ml using the Bradford protein analysis with bovine gamma globulin as standard. Membranes were used immediately or stored frozen in liquid nitrogen.
The displacement of [^3 H]-imipramine binding to human platelet membranes was performed essentially as described by Paul, S. M., et al , Life Sci., 26, 953 (1980) with the following modifications. Membranes (0.3 mg protein) were suspended in antiprotease buffer with both […] [^3 H]-imipramine (New England Nuclear) and displacing drug or buffer in a total volume of 250 μl in glass test tubes. Samples were incubated for 90 minutes at 0° C., then diluted to 5 ml in […] sodium chloride, 0.005M potassium chloride, 0.05 Tris pH 7.5 (wash buffer) and immediately filtered through GF/B Whatman Filters and washed twice with 5 ml of wash buffer. Filters were counted in a liquid scintillation counter after addition of Beckman Hp Scintillant.
Non-specific binding of [^3 H]-imipramine was defined as that fraction (generally 35%) of radioactivity that was not displaced by 10 μm desmethylimipramine. Specific binding was determined by subtraction of this non-specific level from values for total [^3 H]-imipramine binding which were measured by incubating [^3 H]-imipramine in the absence of displacing drug. Compounds were tested in duplicate test tubes at a concentration of 10 μm. Compounds which inhibited binding by more than 50% were considered to be active.

Row | Structure (SMILES) | MABP/mm Hg (mean arterial blood pressure) ([1]; 100 mg/kg by gavage) [mm Hg] | inhibition at 10 µM [2] [%] | further results
1 | N#Cc1ncn2c1N(C(=O)CCN1CCN(c3ccccc3)CC1)CC=C2c1cccc(C(F)(F)F)c1 [Example 17, 1,2-Dihydro-1-[1-oxo-3-(4-phenyl-1-piperazinyl]propyl]-4-[3-(trifluoromethyl)phenyl]imidazo[1,5-a]pyrimidine-8-carbonitrile] | 115 |  | 
2 | COc1cccc(CN2CCN(CC(=O)N3CC=C(c4cccc(C(F)(F)F)c4)n4cnc(C#N)c43)CC2)c1 [Example 5, 1,2-Dihydro-1-[[4-[(3-methoxyphenyl)methyl]-1-piperazinyl]acetyl]-4-[3-(trifluoromethyl)phenyl]imidazo[1,5-a]pyrimidine-8-carbonitrile] |  |  | % Inhibition of [^3 H]-imipramine binding [2]: 81%
3 | N#Cc1ncn2c1N(C(=O)CCN1CCN(c3ccc(Cl)cc3)CC1)CC=C2c1cccc(C(F)(F)F)c1 [Example 18, 1-[3-[4-(4-Chlorophenyl)-1-piperazinyl]-1-oxopropyl]-1,2-dihydro-4-[3-(trifluoromethyl)phenyl]imidazo[1,5-a]pyrimidine-8-carbonitrile] | 118 | 53 | 
4 | N#Cc1ncn2c1N(C(=O)CN1CCC(c3ccccc3)CC1)CC=C2c1cccc(C(F)(F)F)c1 [Example 25, 1,2-Dihydro-1-[(4-phenyl-1-piperidinyl)acetyl]-4-[3-(trifluoromethyl)phenyl]imidazo[1,5-a]pyrimidine-8-carbonitrile] | 137 |  | 
5 | COc1cccc(CN2CCN(CC(=O)N3CC=C(c4cccc(C(F)(F)F)c4)n4cnc(C#N)c43)CC2)c1 [Example 6, 1,2-Dihydro-1-[[4-[(3-methoxyphenyl)methyl]-1-piperazinyl]acetyl]-4-[3-trifluoromethyl)phenyl]imidazo[1,5-a]pyrimidine-8-carbonitrile, dihydrochloride] |  | 75 | 
6 | COc1ccc(Cl)cc1NCC(=O)N1CC=C(c2cccc(C(F)(F)F)c2)n2cnc(C#N)c21 [1-[[(5-Chloro-2-methoxyphenyl)amino]acetyl]-1,2-dihydro-4-[3-(trifluoromethyl)phenyl]imidazo[1,5-a]pyrimidine-8-carbonitrile] | 135 |  | 
7 | C#CCN1CCN(CC(=O)N2CC=C(c3cccc(C(F)(F)F)c3)n3cnc(C#N)c32)CC1.Cl.Cl [Example 14, 1,2-Dihydro-1-[[4-(2-propynyl)-1-piperazinyl]acetyl]-4-[3-(trifluoromethyl)phenyl]imidazo[1,5-a]pyrimidine-8-carbonitrile, dihydrochloride] | 129 |  | 
8 | CC(C)N1CCN(CCC(=O)N2CC=C(c3cccc(C(F)(F)F)c3)n3cnc(C#N)c32)CC1 [Example 24, 1,2-Dihydro-1-[3-[4-(1-methylethyl)-1-piperazinyl]-1-oxopropyl]-4-[3-(trifluoromethyl)phenyl]imidazo[1,5-a]pyrimidine-8-carbonitrile] |  |  | MABP/mm Hg (mean arterial blood pressure) ([1]; 50 mg/kg by gavage): 133 mm Hg
9 | N#Cc1ncn2c1N(C(=O)CCN1CCN(c3ccc(F)cc3)CC1)CC=C2c1cccc(C(F)(F)F)c1 [Example 16, 1-[3-[4-(4-Fluorophenyl)-1-piperazinyl]-1-oxopropyl]-1,2-dihydro-4-[3-(trifluoromethyl)phenyl]imidazo[1,5-a]pyrimidine-8-carbonitrile] | 110 | 78 | 
10 | N#Cc1ncn2c1N(C(=O)CN1CCN(CCCOc3ccccc3)CC1)CC=C2c1cccc(C(F)(F)F)c1 [Example 9, 1,2-Dihydro-1-[[4-(3-phenoxypropyl)-1-piperazinyl]acetyl]-4-[3-(trifluoromethyl)phenyl]imidazo[1,5-a]pyrimidine-8-carbonitrile] | 130 | 50 | 
11 | N#Cc1ncn2c1N(C(=O)CCN1CCN(Cc3ccccc3)CC1)CC=C2c1cccc(C(F)(F)F)c1 [Example 22, 1,2-Dihydro-1-[1-oxo-3-[(4-phenylmethyl)-1-piperazinyl]propyl]-4-[3-(trifluoromethyl)phenyl]imidazo[1,5-a]pyrimidine-8-carbonitrile] |  | 61 | 
12 | N#Cc1ncn2c1N(C(=O)CCN1CCN(Cc3c(Cl)cccc3Cl)CC1)CC=C2c1cccc(C(F)(F)F)c1 [Example 23, 1-[4-[4-[(2,6-Dichlorophenyl)methyl]-1-piperazinyl]-1-oxopropyl]-1,2-dihydro-4-[3-(trifluoromethyl)phenyl]imidazo[1,5-a]pyrimidine-8-carbonitrile] |  | 98 | 
13 | N#Cc1ncn2c1N(C(=O)CCN1CCN(Cc3ccc(Cl)cc3)CC1)CC=C2c1cccc(C(F)(F)F)c1 [Example 20, 1-[3-[4-[(4-Chlorophenyl)methyl]-1-piperazinyl]-1-oxopropyl]-1,2-dihydro-4-[3-(trifluoromethyl)phenyl]imidazo[1,5-a]pyrimidine-8-carbonitrile] | 128 | 75 | 
14 | N#Cc1ncn2c1N(C(=O)CN1CCN(c3ccc(Cl)cc3)CC1)CC=C2c1cccc(C(F)(F)F)c1 [Example 13, 1-[[4-(4-Chlorophenyl)-1-piperazinyl]acetyl]-1,2-dihydro-4-[3-(trifluoromethyl)phenyl]imidazo[1,5-a]pyrimidine-8-carbonitrile] | 137 |  | 
15 | N#Cc1ncn2c1N(C(=O)CCN1CCN(CCCOc3ccccc3)CC1)CC=C2c1cccc(C(F)(F)F)c1 [Example 21, 1,2-Dihydro-1-[1-oxo-3-[4-(3-phenoxypropyl)-1-piperazinyl]propyl]-4-[3-(trifluoromethyl)phenyl]imidazo[1,5-a]pyrimidine-8-carbonitrile] |  | 66 | 
16 | CCOC(=O)N1CCN(CCC(=O)N2CC=C(c3cccc(C(F)(F)F)c3)n3cnc(C#N)c32)CC1.Cl [Example 19, 4-[3-[8-Cyano-4-[3-(trifluoromethyl)phenyl]imidazo[1,5-a]pyrimidine-1(2H)-yl]-3-oxopropyl]-1-piperazinecarboxylic acid, ethyl ester monohydrochloride] | 134 |  | 
17 | N#Cc1ncn2c1N(C(=O)CN1CCN(C(c3ccccc3)c3ccc(Cl)cc3)CC1)CC=C2c1cccc(C(F)(F)F)c1 (stereo not shown) [Example 10, 1-[[4-[(4-Chlorophenyl)phenylmethyl]-1-piperazinyl]acetyl]-1,2-dihydro-4-[3-(trifluoromethyl)phenyl]imidazo[1,5-a]pyrimidine-8-carbonitrile] | 137 |  | 
18 | N#Cc1ncn2c1N(C(=O)CN1CCN(Cc3ccc(Cl)cc3)CC1)CC=C2c1cccc(C(F)(F)F)c1 [Example 11, 1-[[4-[(4-Chlorophenyl)methyl]-1-piperazinyl]acetyl]-1,2-dihydro-4-[3-(trifluoromethyl)phenyl]imidazo[1,5-a]pyrimidine-8-carbonitrile] |  | 93 | 
